Publication PMC4503722, “Novel Phenotypic Outcomes Identified for a Public Collection of Approved Drugs from a Publicly Accessible Panel of Assays” (PLoS ONE, 2015)
Like-named read-outs stand apart in the source and are kept apart here.

What was measured:
[1] = system: HeLa cells; experiment: cells; assay type: cell-based; conditions: Homo sapiens, HeLa, read-out: CellCycle G2/M
[2] = target: T1, hp70S6K1 (RPS6KB1) (Homo sapiens, UniProt P23443); experiment: Cerep LANCE kinase assay hp70S6K1 (S1 assay 31); assay type: biochemical; conditions: for IC50: read-out: p70S6K1
T1 construct: purchased Cerep (LANCE kinase assay platform, contract assay)
T1 sequence (P23443 whole entry): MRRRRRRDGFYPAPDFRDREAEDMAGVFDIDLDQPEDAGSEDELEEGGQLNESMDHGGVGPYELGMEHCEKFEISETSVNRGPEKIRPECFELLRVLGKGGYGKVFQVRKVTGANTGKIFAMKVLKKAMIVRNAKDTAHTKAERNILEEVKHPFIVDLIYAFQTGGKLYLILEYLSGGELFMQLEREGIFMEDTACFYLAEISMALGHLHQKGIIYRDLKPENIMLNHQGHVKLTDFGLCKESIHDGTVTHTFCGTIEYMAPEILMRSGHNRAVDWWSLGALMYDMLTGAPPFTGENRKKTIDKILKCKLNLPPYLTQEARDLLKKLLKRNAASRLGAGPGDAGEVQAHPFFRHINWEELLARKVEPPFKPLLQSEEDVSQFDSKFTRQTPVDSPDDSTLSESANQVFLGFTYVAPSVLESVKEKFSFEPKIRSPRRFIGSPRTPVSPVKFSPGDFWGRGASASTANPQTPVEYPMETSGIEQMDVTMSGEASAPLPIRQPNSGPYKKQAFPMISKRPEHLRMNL

[3] = system: HCT116; experiment: cells; assay type: cell-based; conditions: Homo sapiens
[4] = target: T2, hFLT3 (Homo sapiens, UniProt P36888); experiment: Cerep LANCE kinase assay hFLT3 (S1 assay 35); assay type: biochemical; conditions: for IC50: read-out: FLT3
T2 construct: purchased Cerep (LANCE kinase assay platform, contract assay)
T2 sequence (P36888 27-993): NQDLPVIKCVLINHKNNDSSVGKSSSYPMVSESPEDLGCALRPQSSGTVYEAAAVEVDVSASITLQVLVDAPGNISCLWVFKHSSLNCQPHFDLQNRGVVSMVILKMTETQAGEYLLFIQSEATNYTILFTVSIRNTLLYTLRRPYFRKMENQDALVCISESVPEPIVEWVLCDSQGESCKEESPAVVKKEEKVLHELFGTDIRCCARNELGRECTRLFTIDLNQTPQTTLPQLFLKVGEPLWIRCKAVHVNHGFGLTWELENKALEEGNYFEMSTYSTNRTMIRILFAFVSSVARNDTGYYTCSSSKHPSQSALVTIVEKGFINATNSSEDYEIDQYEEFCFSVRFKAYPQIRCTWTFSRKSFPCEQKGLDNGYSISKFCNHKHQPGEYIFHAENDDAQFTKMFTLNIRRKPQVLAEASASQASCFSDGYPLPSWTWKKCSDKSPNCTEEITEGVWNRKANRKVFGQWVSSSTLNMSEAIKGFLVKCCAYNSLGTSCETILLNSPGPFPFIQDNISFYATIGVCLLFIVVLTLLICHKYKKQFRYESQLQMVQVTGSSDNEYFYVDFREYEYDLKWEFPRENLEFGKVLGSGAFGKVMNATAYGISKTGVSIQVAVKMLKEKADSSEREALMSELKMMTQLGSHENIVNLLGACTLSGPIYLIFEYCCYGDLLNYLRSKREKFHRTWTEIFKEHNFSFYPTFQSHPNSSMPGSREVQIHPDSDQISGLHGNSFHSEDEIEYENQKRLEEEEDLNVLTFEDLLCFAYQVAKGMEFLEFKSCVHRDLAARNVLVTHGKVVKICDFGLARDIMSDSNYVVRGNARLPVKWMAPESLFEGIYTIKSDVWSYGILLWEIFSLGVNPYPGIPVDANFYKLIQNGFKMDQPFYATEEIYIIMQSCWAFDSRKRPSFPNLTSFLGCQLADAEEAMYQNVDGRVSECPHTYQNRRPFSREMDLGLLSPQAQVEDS

[5] = system: INS-1E cells; experiment: cells; assay type: cell-based, rat; conditions: Rattus norvegicus, INS-1E
[6] = system: SW480; experiment: cells; assay type: cell-based; conditions: Homo sapiens
[7] = system: NCI-H716 cells; experiment: cells; assay type: cell-based, Human; conditions: Homo sapiens
[8] = target: T3, hKDR (Homo sapiens, UniProt P35968); experiment: Cerep LANCE kinase assay hKDR (S1 assay 32); assay type: biochemical; conditions: for IC50: read-out: KDR
T3 construct: purchased Cerep (LANCE kinase assay platform, contract assay)
T3 sequence (P35968 20-1356): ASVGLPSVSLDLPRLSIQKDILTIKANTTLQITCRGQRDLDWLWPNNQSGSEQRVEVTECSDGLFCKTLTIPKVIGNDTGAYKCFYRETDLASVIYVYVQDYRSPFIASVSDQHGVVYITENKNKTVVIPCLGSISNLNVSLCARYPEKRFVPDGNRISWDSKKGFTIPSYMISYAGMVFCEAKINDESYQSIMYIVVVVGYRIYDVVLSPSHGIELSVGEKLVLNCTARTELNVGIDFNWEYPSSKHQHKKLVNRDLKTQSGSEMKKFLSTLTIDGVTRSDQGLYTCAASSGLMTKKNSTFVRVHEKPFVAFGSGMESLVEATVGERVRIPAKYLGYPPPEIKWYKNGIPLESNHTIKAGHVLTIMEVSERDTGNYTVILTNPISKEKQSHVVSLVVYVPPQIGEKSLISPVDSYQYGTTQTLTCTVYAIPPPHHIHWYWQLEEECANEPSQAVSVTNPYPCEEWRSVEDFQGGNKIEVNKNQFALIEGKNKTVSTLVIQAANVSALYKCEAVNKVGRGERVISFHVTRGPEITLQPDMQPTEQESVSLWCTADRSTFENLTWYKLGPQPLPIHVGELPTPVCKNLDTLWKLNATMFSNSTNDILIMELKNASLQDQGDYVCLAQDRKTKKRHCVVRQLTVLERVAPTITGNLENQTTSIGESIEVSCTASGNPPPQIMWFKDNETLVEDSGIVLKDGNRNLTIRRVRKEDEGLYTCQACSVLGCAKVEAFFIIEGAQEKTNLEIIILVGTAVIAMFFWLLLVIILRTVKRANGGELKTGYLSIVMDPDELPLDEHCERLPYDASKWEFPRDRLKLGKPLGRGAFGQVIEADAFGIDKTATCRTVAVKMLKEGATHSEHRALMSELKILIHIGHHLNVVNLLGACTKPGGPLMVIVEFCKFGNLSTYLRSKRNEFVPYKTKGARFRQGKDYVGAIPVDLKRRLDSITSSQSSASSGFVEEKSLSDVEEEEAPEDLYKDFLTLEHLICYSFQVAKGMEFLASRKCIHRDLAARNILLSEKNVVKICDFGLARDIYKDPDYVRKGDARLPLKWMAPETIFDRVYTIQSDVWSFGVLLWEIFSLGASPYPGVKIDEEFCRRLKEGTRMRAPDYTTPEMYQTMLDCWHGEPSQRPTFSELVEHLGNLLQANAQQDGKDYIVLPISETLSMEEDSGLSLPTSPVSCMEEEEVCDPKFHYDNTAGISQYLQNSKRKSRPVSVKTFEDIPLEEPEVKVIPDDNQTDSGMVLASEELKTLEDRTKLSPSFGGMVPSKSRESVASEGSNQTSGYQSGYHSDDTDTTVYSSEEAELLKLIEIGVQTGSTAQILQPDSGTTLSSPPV

[9] = system: endothelial tube formation in co-cultures of ECFCs and ADSCs treated with VEGF; experiment: cells; assay type: cell-based, human; conditions: for IC50: Homo sapiens
[10] = system: HCT116 cells treated with a GSK3β inhibitor; experiment: cells; assay type: cell-based; conditions: Homo sapiens
[11] = target: T4, hGSK3b (Homo sapiens, UniProt P49841); experiment: Cerep LANCE kinase assay hGSK3b (S1 assay 34); assay type: biochemical; conditions: for IC50: read-out: GSK3b
T4 construct: purchased Cerep (LANCE kinase assay platform, contract assay)
T4 sequence (P49841 whole entry): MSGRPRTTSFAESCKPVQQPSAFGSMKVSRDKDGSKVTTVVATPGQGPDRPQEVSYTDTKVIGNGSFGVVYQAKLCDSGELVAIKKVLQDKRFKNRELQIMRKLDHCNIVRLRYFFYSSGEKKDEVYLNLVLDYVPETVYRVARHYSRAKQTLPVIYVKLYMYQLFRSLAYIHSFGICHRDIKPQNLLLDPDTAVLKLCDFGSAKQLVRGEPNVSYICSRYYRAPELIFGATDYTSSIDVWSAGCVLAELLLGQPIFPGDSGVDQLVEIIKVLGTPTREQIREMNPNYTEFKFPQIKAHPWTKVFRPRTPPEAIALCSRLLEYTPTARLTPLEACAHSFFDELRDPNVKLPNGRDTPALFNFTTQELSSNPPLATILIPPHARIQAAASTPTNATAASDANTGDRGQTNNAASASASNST

[12] = target: T5, hJAK2 (Homo sapiens, UniProt O60674); experiment: Cerep LANCE kinase assay hJAK2 (S1 assay 33); assay type: biochemical; conditions: for IC50: read-out: JAK2
T5 construct: purchased Cerep (LANCE kinase assay platform, contract assay)
T5 sequence (O60674 whole entry): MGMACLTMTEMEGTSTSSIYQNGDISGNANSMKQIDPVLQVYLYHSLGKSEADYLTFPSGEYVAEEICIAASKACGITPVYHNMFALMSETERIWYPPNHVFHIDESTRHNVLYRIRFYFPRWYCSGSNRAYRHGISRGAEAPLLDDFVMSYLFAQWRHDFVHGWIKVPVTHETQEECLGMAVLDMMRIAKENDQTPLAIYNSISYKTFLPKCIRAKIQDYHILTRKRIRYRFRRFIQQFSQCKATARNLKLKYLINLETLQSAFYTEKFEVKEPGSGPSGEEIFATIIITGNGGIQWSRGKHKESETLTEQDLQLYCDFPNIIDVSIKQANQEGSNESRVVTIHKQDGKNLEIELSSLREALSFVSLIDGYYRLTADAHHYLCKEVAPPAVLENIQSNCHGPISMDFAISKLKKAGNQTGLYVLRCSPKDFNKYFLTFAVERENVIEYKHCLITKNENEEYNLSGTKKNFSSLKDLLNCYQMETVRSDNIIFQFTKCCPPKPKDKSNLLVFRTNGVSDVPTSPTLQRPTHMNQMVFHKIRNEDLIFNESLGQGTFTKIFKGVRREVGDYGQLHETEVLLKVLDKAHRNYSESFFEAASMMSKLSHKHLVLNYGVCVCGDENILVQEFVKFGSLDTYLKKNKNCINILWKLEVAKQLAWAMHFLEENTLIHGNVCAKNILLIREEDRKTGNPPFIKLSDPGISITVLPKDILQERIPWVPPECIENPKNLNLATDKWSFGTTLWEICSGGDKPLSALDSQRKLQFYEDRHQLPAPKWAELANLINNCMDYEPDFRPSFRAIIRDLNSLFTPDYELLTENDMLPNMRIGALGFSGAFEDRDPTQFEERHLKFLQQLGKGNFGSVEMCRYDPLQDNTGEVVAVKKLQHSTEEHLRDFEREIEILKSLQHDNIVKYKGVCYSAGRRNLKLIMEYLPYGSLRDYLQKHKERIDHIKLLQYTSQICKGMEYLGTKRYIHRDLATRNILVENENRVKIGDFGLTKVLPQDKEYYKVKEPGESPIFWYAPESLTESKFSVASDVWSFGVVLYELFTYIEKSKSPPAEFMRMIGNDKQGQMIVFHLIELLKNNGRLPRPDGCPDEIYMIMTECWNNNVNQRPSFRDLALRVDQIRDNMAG

[13] = system: nuclear β-catenin in C2C12 cells; experiment: cells; assay type: cell-based; conditions: Mus musculus
[14] = system: DLD-1; experiment: cells; assay type: cell-based; conditions: Homo sapiens
[15] = system: Colo320; experiment: cells; assay type: cell-based; conditions: Homo sapiens, COLO 320, read-out: Basal_Viability ATP Colo 320
[16] = system: HT-29; experiment: cells; assay type: cell-based; conditions: Homo sapiens, HT-29, read-out: Basal_Viability ATP HT-29
[17] = system: SNU-C1; experiment: cells; assay type: cell-based; conditions: Homo sapiens, SNU-C1, read-out: Basal_Viability ATP SNU-C1
[18] = SW480, read-out: Basal_Viability ATP SW480
[19] = NCI-H716, read-out: GLP 1 Secretion
[20] = HCT-116, read-out: GSK3b inh pretreated_Viability ATP HCT116
[21] = DLD-1, read-out: Basal_Viability ATP DLD-1

Structure (SMILES)	EC50 [1] [µM]	IC50 ([2]; kinase assay) [µM]	IC50 ([4]; kinase assay) [µM]	EC50 ([5]; read-out: Insulin Secretion) [µM]	IC50 [6, 18] [µM]	EC50 [7, 19] [µM]	IC50 ([8]; kinase assay) [µM]	IC50 ([9]; read-out: Anti-Angiogenesis) [µM]	IC50 [10, 20] [µM]	IC50 ([11]; kinase assay) [µM]	IC50 ([12]; kinase assay) [µM]	IC50 [14, 21] [µM]	IC50 [2] [µM]	IC50 [4] [µM]	IC50 [8] [µM]	IC50 [11] [µM]	IC50 [12] [µM]	also measured
CC(=O)[C@]1(O)Cc2c(O)c3c(c(O)c2[C@@H](O[C@H]2C[C@H](N)[C@H](O)[C@H](C)O2)C1)C(=O)c1ccccc1C3=O [Idarubicin]	> 10	> 20	> 20	> 10	4.75	> 10	> 20	0.0208	0.1	> 20	> 20	0.387						IC50 ([3]; HCT-116, read-out: Basal_Viability ATP HCT116): 0.0667 µM; EC50 ([13]; C2C12, read-out: Wnt Pathway): 0.1 µM
CCCCCCCCCCCCCCCCNc1ccc(C(=O)O)cc1 [cetaben sodium, sodium p-(hexadecylamino) benzoate, reference compound]	> 10				4.39			0.367	7.41			10.6	> 20	> 20	> 20	> 20	> 20	inhibition of RPS6KB1 activity (in words) [2]: does not inhibit; IC50 ([3]; HCT-116, 72 h, read-out: HCT-116 viab. IC50): > 20 µM; inhibition of FLT3 activity (in words) [4]: does not inhibit; EC50 ([5]; read-out: Ins. sec. EC50): > 10 µM; IC50 ([6]; SW480, 72 h, read-out: SW480 viab. IC50): 4.4 µM; EC50 ([7]; NCI-H716, read-out: GLP1 sec. EC50): > 10 µM; inhibition of KDR activity (in words) [8]: does not inhibit; inhibition of endothelial tube / cord formation (in words) [9]: uniquely inhibited endothelial cord formation; IC50 ([9]; read-out: Anti-Angio IC50): 0.37 µM; IC50 ([10]; HCT-116, 72 h, read-out: HCT-116 (GSK3β) viab. IC50): 7.4 µM; inhibition of GSK3β activity (in words) [11]: does not inhibit; inhibition of JAK2 activity (in words) [12]: does not inhibit; EC50 ([13]; C2C12, read-out: Wnt pot. EC50): > 10 µM; IC50 ([14]; DLD-1, 72 h, read-out: DLD-1 viab. IC50): 10.6 µM
CCCCCCNC(=O)n1cc(F)c(=O)[nH]c1=O [Carmofur]													> 20	> 20	> 20	> 20	> 20	EC50 ([1]; IC50 / EC50): > 10 µM; IC50 ([3]; HCT-116, basal, read-out: Basal_Viability ATP HCT116): > 20 µM; EC50 ([5]; IC50 / EC50, read-out: Insulin Secretion): > 10 µM; IC50 ([6]; SW480, basal, read-out: Basal_Viability ATP SW480): 10.6 µM; EC50 ([7]; IC50 / EC50, NCI-H716, read-out: GLP 1 Secretion): > 10 µM; IC50 ([9]; IC50 / EC50, endothelial tube area, ADSC/ECFC co-culture, read-out: Anti-Angiogenesis): 4.49 µM; IC50 ([10]; HCT-116, GSK3b inhibitor pretreated, read-out: GSK3b inh pretreated_Viability ATP HCT116): 10.5 µM; EC50 ([13]; C2C12, IC50 / EC50, C2C12 beta-catenin translocation, read-out: Wnt Pathway): 4.98 µM; IC50 ([14]; DLD-1, basal, read-out: Basal_Viability ATP DLD-1): > 20 µM
O=c1[nH]c(=O)n([C@H]2C[C@H](O)[C@@H](CO)O2)cc1C(F)(F)F [Trifluridine]	> 10	> 20	> 20	> 10	> 20	> 10	> 20		1.25	> 20	> 20	> 20						IC50 [15]: > 20 µM; IC50 [16]: > 20 µM; IC50 [17]: > 20 µM
